Test results reported in US20250011322A1, “MEDICAL COMPOUND FOR THE INHIBITION OF ALDEHYDE DEHYDROGENASE SUBTYPE 1A” (Theranib Inc., priority 2023, published 2025).
Entries after “also recorded” stand apart in the source; their conditions may differ.

How the values were obtained:
[1] = test system: MDA-MB-231 tumors; assay: Orthotopic MDA-MB-231 xenograft (native or ALDH1A3-overexpressing) in NOD/SCID mice; assay type: in vivo; conditions: for RARB level in tumors (pharmacodynamic analysis): ALDH1A3-overexpressing MDA-MB-231 tumors harvested day 41, treatment from day 15
Procedure: (§1) In vivo experimentation then ensued. The in vivo assays were conducted using eight-week-old female NOD/SCID mice orthotopically injected with 2×10^6 native or ALDH1A3-overexpressing MDA-MB-231 cells. 60 female NOD-SCID mice had approximately 2,000,000 MDA-MB-231 cells injected into a 5th mammary fat pad. 30 mice were injected with MDA-MB-231 bearing a vector control (Groups 1-3), and 30 mice were injected with MDA-MB-231 bearing an ALDH1A3 overexpression vector (Groups 4-6). On day 15 of inoculation, the treatment phase began. Groups 1 and 4 (n=10, 10 respectively) received saline i.p. injections 100 uL every day for 26 days. Groups 2 and 5 (n=10, 10) received 0.4 mg/kg drug i.p. in 100 uL saline every day for 26 days. Groups 3 and 6 (n=10, 10) received 4.0 mg/kg drug i.p. in 100 uL saline every day for 26 days. Caliper measurements of tumors and body weights were taken throughout the treatment phase. After 26 days, all mice were euthanized, the tumors were harvested, and blood was drawn for analysis.
On day 15, the animals were treated with compound 1, administered daily intraperitoneally at a concentration of 0.4 mg/Kg or 4 mg/Kg, then constantly monitored for body weight increase (FIG. 7) and tumor volume (FIG. 8). Once the tumors became palpable, we started treatment of the animals (day 15). After 26 days of treatment, the animals were sacrificed and the tumors were collected and evaluated for size (FIGS. 8 and 9) and weight (FIG. 10).

[2] = test system: ALDH1A3 target genes (RARB, DHRS3, ELF3, RARRES1); assay: Expression of ALDH1A3 target genes in breast cancer cell lines by QPCR; assay type: cell-based; conditions: 24 hours of treatment; for Expression of ALDH1A3 target genes in ALDH1A3-expressing lines: ALDH1A3-overexpressing MDA-MB-231, MDA-MB-468 and HCC1806 cells; for Expression of ALDH1A3 target genes in native line: native MDA-MB-231 cells
Procedure: FIGS. 5A, 5B, 5C. […] Expression of DHRS3, RARB, ELF3, and RARRES1 in MDA-MB-231 cells with ALDH1A3 overexpression (FIG. 5A), MDA-MB-468 cells (with ALDH1A3 shRNA knockdown as control, FIG. 5B), and HCC1806 (with ALDH1A3 shRNA knockdown as control, FIG. 5C) is determined 24 hours after treatment with 0, 1, 10, or 100 nM compound 1 by QPCR. Significance determined by one-way Anova, p-value […], <0.01=**, <0.001=***, <0.0001=****.
Subsequently, to confirm the direct inhibitory activity of the tested compounds on the enzymatic isoform of interest, their effect on the expression of ALDH1A3 target genes, and in particular of RARB, DHRS3, ELF3, and RARRES1, was investigated in the aforementioned cell lines.

[3] = Toxicity readouts in the xenograft study: body weight, serum ALT, serum creatinine; assay type: in vivo, mice
Procedure: as §1
This is evidenced by the trend over time of their body weight (FIG. 7) and also the analysis of alanine aminotransferase (ALT) and creatinine levels in serum collected from terminal animals (FIGS. 12A and 12B).

[4] = biological target: T1, ALDH1A1 (Homo sapiens, UniProt P00352); assay: Aldefluor test in MDA-MB-231 cells overexpressing ALDH1A1; assay type: cell-based
T1 construct: expressed in transfected cells; host or cells: MDA-MB-231
T1 sequence (P00352 1-501): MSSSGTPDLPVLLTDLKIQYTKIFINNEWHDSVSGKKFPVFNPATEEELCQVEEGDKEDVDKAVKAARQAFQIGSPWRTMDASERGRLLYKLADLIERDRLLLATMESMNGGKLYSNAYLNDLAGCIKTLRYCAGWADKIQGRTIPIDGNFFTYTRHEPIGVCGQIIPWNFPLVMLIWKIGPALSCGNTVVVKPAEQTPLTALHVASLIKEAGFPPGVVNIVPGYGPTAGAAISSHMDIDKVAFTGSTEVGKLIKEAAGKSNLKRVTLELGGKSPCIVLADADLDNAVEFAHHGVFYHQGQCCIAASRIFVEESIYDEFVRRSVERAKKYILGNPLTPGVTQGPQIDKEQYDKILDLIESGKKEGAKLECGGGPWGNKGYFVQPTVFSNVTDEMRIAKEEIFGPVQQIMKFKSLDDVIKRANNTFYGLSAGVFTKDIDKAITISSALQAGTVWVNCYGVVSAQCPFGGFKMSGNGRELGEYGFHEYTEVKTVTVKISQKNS
Procedure: (§2) In vitro assays were conducted on breast cancer cell lines MDA-MB-231, MDA-MB-468, and HCC1806 cells. Specifically, the MDA-MB-231 cell line, characterized by a low expression of ALDH1A, was used as such or after being engineered to overexpress the ALDH1A1 or ALDH1A3 isoform, while the MDA-MB-468 and HCC1806 cell lines, characterized by a high expression of ALDH1A3 were used as such or after being knocked down for the ALDH1A3 isoform (FIG. 1). […] The experiments were conducted using the Aldefluor® test, specific for aldehyde dehydrogenases.

[5] = biological target: T2, ALDH1A3 (Homo sapiens, UniProt P47895); assay: Aldefluor test in MDA-MB-231 cells overexpressing ALDH1A3; assay type: cell-based; conditions: for IC50: Aldefluor test; for Inhibition of ALDH1A3-induced Aldefluor activity: dilution series of compound
T2 construct: expressed in transfected cells; host or cells: MDA-MB-231
T2 sequence (P47895 1-512): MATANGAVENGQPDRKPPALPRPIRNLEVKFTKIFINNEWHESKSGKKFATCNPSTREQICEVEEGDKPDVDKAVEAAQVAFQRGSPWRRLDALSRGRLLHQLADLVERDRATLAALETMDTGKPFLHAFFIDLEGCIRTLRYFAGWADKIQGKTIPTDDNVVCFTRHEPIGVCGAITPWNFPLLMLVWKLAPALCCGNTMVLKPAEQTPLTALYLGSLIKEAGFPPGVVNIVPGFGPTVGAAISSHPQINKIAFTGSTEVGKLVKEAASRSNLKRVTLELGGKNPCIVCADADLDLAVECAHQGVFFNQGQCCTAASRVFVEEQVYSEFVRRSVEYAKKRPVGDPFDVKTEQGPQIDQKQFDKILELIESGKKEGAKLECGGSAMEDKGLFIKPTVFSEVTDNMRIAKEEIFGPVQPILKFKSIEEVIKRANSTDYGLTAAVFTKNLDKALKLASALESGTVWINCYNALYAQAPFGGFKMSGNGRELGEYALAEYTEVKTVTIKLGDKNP
Procedure: as §2

[6] = daily treatment from day 15, measured on day 41, mice
[7] = MDA-MB-231 cells overexpressing ALDH1A3
[8] = MDA-MB-231 cells with ALDH1A3 overexpression

Row | IC50 [5, 7] [nM] | Inhibition of ALDH1A3-induced Aldefluor activity [5, 8] | Inhibition of Aldefluor assay activity of ALDH1A3 ([5]; 100 uM, MDA-MB-231 cells overexpressing ALDH1A3) | Amounts distinguishable from control counts in the plot of Aldefluor count ([5]; MDA-MB-231 cells with ALDH1A3 overexpression, all other concentrations not distinguishable from control) [µM] | Structure (SMILES) | Tumor growth (volume, weight) induced by ALDH1A3 ([1]; 0.4 or 4 mg/Kg i.p. daily for 26 days from day 15, NOD/SCID mice) | RARB level in tumors (pharmacodynamic analysis) [1] | RARB level in tumors (pharmacodynamic analysis) ([1]; listed as compound 1) | Expression of ALDH1A3 target genes in ALDH1A3-expressing lines [2] | Expression of ALDH1A3 target genes in native line [2] | Toxicity (overall) ([3]; daily i.p. 0.4 or 4 mg/Kg for 26 days, mice) | Serum alanine aminotransferase (ALT) [3, 6] | Serum creatinine [3, 6] | Body weight ([3]; mice injected with MDA-MB-231 cells, treatment from day 15) | Inhibition of Aldefluor assay activity of ALDH1A1 ([4]; 100 uM) | Inhibition of Aldefluor activity induced by ALDH1A1 overexpression ([4]; all plotted concentrations)
1 | 9.4 | inhibits Aldefluor activity |  |  | CC(=O)c1ccc(-c2cc(-c3ccc(C#N)cc3)cn3cc(-c4ccccc4)nc23)cc1 [Compound 2, 4-(8-(4-acetylphenyl)-2-phenylimidazo[1,2-a]pyridin-6-yl)benzonitrile] |  |  |  | statistically significantly reduced the expression of the target genes | neither compound 1 nor compound 2 produced significant results |  |  |  |  |  | 
2 |  |  | inhibits |  | CCN(CC)c1ccc(C=O)cc1 [DEAB, 4-Diethylaminobenzaldehyde, reference compound] |  |  |  |  |  |  |  |  |  |  | 
3 | ~100000 | inhibit |  | 100 | c1ccc(-c2ccc3nc(-c4ccccc4)cn3c2)cc1 [GA11, reference compound] |  |  |  |  |  |  |  |  |  |  | 

Row | Structure (SMILES) | IC50 [5, 7] [nM] | Inhibition of ALDH1A3-induced Aldefluor activity [5, 8] | Inhibition of Aldefluor assay activity of ALDH1A3 ([5]; 100 uM, MDA-MB-231 cells overexpressing ALDH1A3) | Amounts distinguishable from control counts in the plot of Aldefluor count ([5]; MDA-MB-231 cells with ALDH1A3 overexpression, all other concentrations not distinguishable from control) [µM] | Tumor growth (volume, weight) induced by ALDH1A3 ([1]; 0.4 or 4 mg/Kg i.p. daily for 26 days from day 15, NOD/SCID mice) | RARB level in tumors (pharmacodynamic analysis) [1] | RARB level in tumors (pharmacodynamic analysis) ([1]; listed as compound 1) | Expression of ALDH1A3 target genes in ALDH1A3-expressing lines [2] | Expression of ALDH1A3 target genes in native line [2] | Toxicity (overall) ([3]; daily i.p. 0.4 or 4 mg/Kg for 26 days, mice) | Serum alanine aminotransferase (ALT) [3, 6] | Serum creatinine [3, 6] | Body weight ([3]; mice injected with MDA-MB-231 cells, treatment from day 15) | Inhibition of Aldefluor assay activity of ALDH1A1 ([4]; 100 uM) | Inhibition of Aldefluor activity induced by ALDH1A1 overexpression ([4]; all plotted concentrations)
4 | CC(=O)c1ccc(-c2cc(-c3ccc(C(C)=O)cc3)c3nc(-c4ccccc4)cn3c2)cc1 [Compound 1, 1,1′-((2-phenylimidazo[1,2-a]pyridine-6,8-diyl)bis(4,1-phenylene))bis(ethan-1-one)] | 1.9 | inhibits Aldefluor activity |  |  | reduce, in a statistically significant way, the increased tumor growth | reduces ALDH1A3-inducible RARB expression | significantly reduced RARB level | statistically significantly reduced the expression of the target genes; also recorded: specifically inhibit the expression of ALDH1A3 target genes | neither compound 1 nor compound 2 produced significant results | no detectable toxicity | does not affect | does not affect | No significant changes were observed | did not inhibit | does not inhibit Aldefluor activity
